Source: US7777060B2, “Platinum analogs with bis-nitrile-containing ligands” (BioNumerik Pharmaceuticals, Inc., priority 2007, dated 2010)

Key:
Format in all cases: cell-based
A2780/WT = experiment: Cytotoxicity IC50 in A2780/WT cell line, 1 hour drug exposure; details: 1 hour of exposure to the drug; average of repeat experiments
Experimental: (§1) All experiments are with 1 hour of exposure to the drug, IC50 in μM. The platinum compounds have been tested by the resistance factor in CP3 cell line (CP3 Rfact) and C25 cell line (C25 Rfact). The terms (CP3 Rfact) and (C25 Rfact) are determined utilizing the following equations, wherein WT stands for wild-type. CP3 Rfact=IC50 in A2780/CP3÷IC50 in A2780/WT C25 Rfact=IC50 in A2780/C25÷IC50 in A2780/WT
(§2) In addition, Compounds with “ - - - ” in the IC50 column indicate the IC50s are >100 μM.

A2780/CP3 = experiment: Cytotoxicity IC50 in A2780/CP3 cell line, 1 hour drug exposure; details: for IC50: 1 hour of exposure to the drug, average of repeat experiments, dash = IC50 >100 μM; for CP3 Rfact: resistance factor = IC50 in A2780/CP3 ÷ IC50 in A2780/WT
Experimental: as §1, §2

A2780/C25 = experiment: Cytotoxicity IC50 in A2780/C25 cell line, 1 hour drug exposure; details: for IC50: 1 hour of exposure to the drug, average of repeat experiments; for C25 Rfact: resistance factor = IC50 in A2780/C25 ÷ IC50 in A2780/WT
Experimental: as §1, §2

| Molecule | IC50 (A2780/WT) [µM] | IC50 (A2780/CP3) [µM] | CP3 Rfact (A2780/CP3) | IC50 (A2780/C25) [µM] | C25 Rfact (A2780/C25) |
| --- | --- | --- | --- | --- | --- |
| N#CCc1ccc2c(c1)OCO2.N#CCc1ccc2c(c1)OCO2.[Cl][Pt@SP1][Cl] [BNP3016, Cis-bis(3,4-(methylenedioxy)phenylacetonitrile)dichloroplatinum (II)] | 62.4 | 75.6 | 1.21 | 66.5 | 1.07 |
| COC(CCC#N)c1ccccc1.COC(CCC#N)c1ccccc1.[Cl][Pt@SP1][Cl] (stereo not drawn) [BNP3017, Cis-bis(4-methoxy-4-phenylbutyronitrile)dichloroplatinum (II)] | 14 | 18.8 | 1.34 | 18.1 | 1.29 |
| N#CCCC1CCCCC1=O.N#CCCC1CCCCC1=O.[Cl][Pt@SP1][Cl] (stereo not drawn) [BNP3020, Cis-bis[3-(2-oxo-cyclohexyl)-propionitrile]dichloroplatinum (II)] | 51.6 | 84.3 | 1.63 | 61.6 | 1.19 |
| [Cl][Pt-2]([Cl])([N+]#CC1CCC1)[N+]#CC1CCC1 [BNP3021, Cis-bis-(cyclobutanecarbonitrile)dichloroplatinum (II)] | 13.9 | 41.3 | 2.97 | 29.2 | 2.10 |
| CCCCOCCC#N.CCCCOCCC#N.[Cl][Pt@SP1][Cl] [BNP3022, Cis-bis(3-butoxypropanenitrile)dichloroplatinum (II)] | 73.8 | > 100 |  | 65 | 0.88 |
| Cc1ccccc1CC#[N+][Pt-2]([Cl])([Cl])[N+]#CCc1ccccc1C [BNP3024, Cis-bis-(o-tolylacetonitrile)dichloroplatinum (II)] | 13.9 | 18.6 | 1.34 | 18.7 | 1.34 |
| Cc1cccc(CC#[N+][Pt-2]([Cl])([Cl])[N+]#CCc2cccc(C)c2)c1 [BNP3026, Cis-bis(m-tolylacetonitrile)dichloroplatinum (II)] | 21.6 | 28.5 | 1.32 | 24 | 1.11 |
| N#CCCCc1ccccc1.N#CCCCc1ccccc1.[Cl][Pt@SP1][Cl] [BNP3029/c, Cis-bis-(4-phenylbutyronitrile)dichloroplatinum (II)] | 4.4 | 6.88 | 1.56 | 5.45 | 1.24 |
| N#CCCCc1ccccc1.N#CCCCc1ccccc1.[Cl][Pt@SP1][Cl] [BNP3029/t, Trans-bis-(4-phenylbutyronitrile)dichloroplatinum (II)] | 16.2 | 19.2 | 1.19 | 17.7 | 1.09 |
| N#CC1Cc2ccccc21.N#CC1Cc2ccccc21.[Cl][Pt@SP1][Cl] (stereo not drawn) [BNP3030, Cis-bis(bicyclo[4.2.0]octa-1(6),2,4-triene-7-carbonitrile)dichloroplatinum (II)] | 51.4 | 61.9 | 1.20 | 58.9 | 1.15 |
| N#CCc1ccccc1C(F)(F)F.N#CCc1ccccc1C(F)(F)F.[Cl][Pt@SP1][Cl] [BNP3037/t, Trans-bis-[2-(trifluoromethyl)-phenylacetonitrile]dichloroplatinum] | 87.1 | > 100 |  | 68.7 | 0.79 |
| Cis-bis(cyclopropaneacetonitrile)dichloroplatinum (II) [BNP3014/c] | 23.3 | 55.7 | 2.39 | 45.4 | 1.94 |
| Cis-bis-[4-(trifluoromethoxy)-phenylacetonitrile]dichloroplatinum (II) [BNP3031] | 18.4 | 35.9 | 1.95 | 23.2 | 1.26 |
| Trans-bis(2,6-difluoro-3-methylphenylacetonitrile)dichloroplatinum (II) [BNP3036/t] | 23.7 | 54.1 | 2.28 | 35.2 | 1.49 |
| Trans-bis(cyclopropaneacetonitrile)dichloroplatinum (II) [BNP3014/t] | 68.1 | > 100 |  | 92 | 1.35 |
